Reference: patent US9322895B2, “Method of determining metabolic function using magnetic resonance spectroscopic imaging” (Greater Glasgow Health Board, priority 2009, dated 2016)

Tests used:
[1] = standard temperature and pressure; cited from earlier work
[2] = test system: anaesthetised rats following a middle cerebral artery occlusion (MCAO); experiment: Localised 1H spectroscopy (PRESS) with oxygen challenge in rats following MCAO; assay type: in vivo; details: rat MCAO
Protocol: In-vivo MRI experiments were performed on anaesthetised rats following a middle cerebral artery occlusion (MCAO). The measurements included RARE T2 imaging, diffusion weighted imaging (DWI), perfusion weighted imaging (PWI), 1H localised spectroscopy and lactate difference imaging (LDI).
The first experiment used a standard localised spectroscopy sequence (PRESS) to acquire 1H spectra. One voxel was placed in the presumed penumbral region (as indicated by DWI/PWI mismatch), a second voxel was placed in the normal contralateral hemisphere (see FIG. 1)

| Structure (SMILES) | oxygen carried by 100 ml [1] [mL] | lactate peak in the penumbra on returning to 100% inhaled air ([2]; after the oxygen challenge) | lactate peak in the penumbral region ([2]; challenge of 100% inhaled oxygen, voxel in DWI/PWI mismatch) | lactate peak in the contralateral region ([2]; challenge of 100% inhaled oxygen, voxel in normal contralateral hemisphere) |
| --- | --- | --- | --- | --- |
| FC1(F)C(F)(F)C(F)(F)C2(F)C(F)(F)C(F)(F)C(F)(F)C(F)(F)C2(F)C1(F)F (stereo not shown) [Perflorodecalin] | 49 |  |  |  |
| O=O [oxygen] |  | increased back to previous level | significant decrease | remained unchanged |
